Laboratory results published in patent US20090232750A1, “Compositions for indoor tanning” (priority 2008, published 2009).

Assays:
[1] = tested on: lymphocytes; conditions: cell culture; U.S. Pat. No. 6,663,859; cited from earlier work
[2] = tested on: fibroblasts in the basal layer; conditions: cited from earlier work
[3] = tested on: skin; assay: Preliminary experiments: D-ribose without penetrant applied to wound or skin; assay type: in vivo
Description: Since the object of this invention is to deliver active ingredient to the basal and dermal cells below the epidermis, when the skin barrier is intact, it has been found necessary to include a penetrant in the solutions, lotions or creams of this invention. Such a penetrant will enhance the delivery of active ingredient by transitory disruption of the cell to cell connections of the skin. Penetrants in general include ionic detergents, non-ionic detergents, fatty acids, organic solvents and oils. Certain constructs such as liposomes and nanoparticles can also be used to transport active ingredient through the stratum corneum barrier. It is well known in the industry to select a penetrant with the desired characteristics, which vary in effect from the intense penetration of the solvent dimethyl sulfoxide (DMSO) which cause the rapid co-transport past the skin barrier of any agent present on the skin, to the milder action of dilute ethanol. Of recent interest are the constructs termed liposomes and nanoparticles, which are molecules that form closed structures that can incorporate an active ingredient. Liposomes and nanoparticles can readily penetrate otherwise impermeable barriers.
The skin is a barrier. […]

[4] = tested on: melanocytes; assay: Effect of D-ribose on melanocytes in vivo: four concentrations in commercial lotion on inside forearm; conditions: for Days to maximum tan / Days to first sign of tanning: twice a day, inside forearm; for Days to first sign of tanning: no sun light; for Spread of tanned area beyond the application site: two inch application area
Description: To determine the effect of D-ribose on melanocytes, the dermal cells that produce a tanning color when exposed to sunlight, four concentrations of D-ribose suspended in a commercial lotion were applied with a cotton applicator twice a day to two inch areas of A subject's inside forearm. The test area was not exposed to sun light. The composition of the lotion was: water, glycerin, mineral oil, stearic acid, glycol stearate, stearamide AMP, petrolatum, dimethicone, chamomile, helianthus, sambucas, theobroma, seed butter, glyceryl, stearate, cetyl alcohol, triethanolamine, acetylated lanolin alcohol and cetyl acetate. The results are shown in Table I. Application was stopped after 11 days. Color began to fade at 14 days in all cases and was gone about two weeks after last application. […] The color spread, presumably because of lateral diffusion of the D-ribose within the dermis, stimulating melanocytes outside the application site. The spread area decreased in intensity of color as the diffused D-ribose decreased in concentration.

[5] = tested on: cultured normal human fibroblasts; conditions: cited from earlier work
[6] = tested on: skin (tanning); assay: D-ribose lotion tested against commercial tanning creams on upper front thigh; assay type: in vivo
Protocol: In other experiments, D-ribose was tested against Jergen's Dark Tanning cream on the upper front thigh of the subject. Each was applied liberally over a six inch by four inch area twice a day for five days. The “tanning” agent in this cream is unknown. The areas on which the Jergen's was applied tanned in 36 hours, hit maximum darkness in two days and faded in eight days. […] In this test, the D-ribose caused maximum darkness in five days and persisted for two weeks after application was discontinued.
D-ribose was also tested against l'Oreal Sublime Glow as above. The active ingredients in this cream were 7.5% octinoate, octsalate 5.0%, octocrylene 3.0% and oxybenzone 6.17%. […] This color began fading within two days of last application and was completely faded within a week.
The evenness of the D-ribose tanned areas can be attributed to the natural production of melanin due to the stimulation by D-ribose penetrating and diffusing to the dermal cells.

[7] = tested on: melanocytes; assay: 4% D-ribose lotion on back of forearm, applied one to four days (melanocyte stimulation vs Maillard reaction); assay type: in vivo
Description: In order to ascertain that the tan color was due to the stimulation of melanocytes and not to a chemical reaction such as the Maillard reaction, the subject applied 4% D-ribose in the above referenced lotion to the back of the forearm. The lotion was applied one day only; two days; three days; and four days. […] By one week after application, the areas to which lotion was applied for one or two days began fading and were completely faded by ten days. The areas to which was applied for three or four days also began fading at one week after application and were completely faded by ten days after last application. The subject had areas of vitilago, a scar and freckles.

[8] = tested on: skeletal muscle ATP; conditions: oral administration; U.S. Pat. Nos. 6,159,942 and 6,534,480; cited from earlier work
[9] = composition containing 1% D-ribose, female volunteers
[10] = all cases, application stopped after 11 days
[11] = upper front thigh, twice a day for five days
[12] = 4% D-ribose lotion applied for one or two days
[13] = 4% D-ribose lotion applied for three or four days

Compound: O=C[C@H](O)[C@H](O)[C@H](O)CO [D-ribose]
- Effect on growth of lymphocytes [1]: stimulates the growth of lymphocytes
- Effect on face wrinkles [2, 9]: reduce face wrinkles
- Tanning effect [2, 9]: No tanning effect
- Melanin formation ([2]; lower amounts of D-ribose, as noted in the '707 application): do not stimulate melanin formation
- Effect on tanning ([3]; D-ribose in water applied to the skin, no penetrant): no effect on tanning
- Effect on improving skin ([3]; preliminary application of ribose without penetrant): unsuccessful
- Days to maximum tan ([4]; 1.0% w/v D-ribose in lotion): No tanning
- Days to first sign of tanning ([4]; 1.0% w/v D-ribose in lotion): No tanning
- Color of spread area versus center of application ([4]; 4% w/v D-ribose): diameter. The spread area is not as dark as the
- Days to maximum tan ([4]; 4% w/v D-ribose in lotion): Six
- Days to first sign of tanning ([4]; 4% w/v D-ribose in lotion): Four
- Diameter of tanned area ([4]; 4% w/v D-ribose, at six days): the tanned area is about four inches in
- Spread of tanned area beyond the application site ([4]; 4% w/v D-ribose, at six days): two inches beyond the application site, that is,
- Color of tan compared with other concentration ([4]; 6% w/v D-ribose): A little darker than the 4%, the tanned area has
- Diameter of tanned area ([4]; 6% w/v D-ribose): site, that is, the tanned area is about four inches
- Days to maximum tan ([4]; 6% w/v D-ribose in lotion): Six
- Days to first sign of tanning ([4]; 6% w/v D-ribose in lotion): Four
- Spread of tanned area beyond the application site ([4]; 6% w/v D-ribose): spread about two inches beyond the application
- Color of tan compared with other concentration ([4]; 10% w/v D-ribose): the same as for the 6%.
- Diameter of tanned area ([4]; 10% w/v D-ribose): is now about eight inches in diameter. Color is
- Days to maximum tan ([4]; 10% w/v D-ribose in lotion): Six
- Days to first sign of tanning ([4]; 10% w/v D-ribose in lotion): Four
- Spread of tanned area beyond the application site ([4]; 10% w/v D-ribose): The tanned area has spread about three inches
- Day at which color began to fade [4, 10]: 14 days
- Time after last application until color was gone [4, 10]: about two
- Intensity of tan reached ([4]; fair-skinned subject): medium intensity
- Quality of tan color ([4]; fair-skinned subject): identical to that resulting from normal sun tanning
- Effect on fibroblasts subjected to hypoxic shock [5]: protective effect
- Uniformity of tanned area ([6]; all experiments): uniform and not blotchy
- Persistence of tan after application was discontinued [6, 11]: two
- Time to maximum darkness [6, 11]: five
- Spread of color beyond area of application ([6]; upper front thigh, twice a day for five days, D-ribose at 4% in lotion): spread beyond the area of application
- Tanning by day three ([7]; 4% D-ribose in lotion, back of forearm, all four areas (applied one, two, three, four days)): lightly tanned
- Time after application at which areas began fading [7, 12]: one
- Time until completely faded [7, 12]: ten
- Time after application at which areas began fading [7, 13]: one
- Time after last application until completely faded [7, 13]: ten
- Tanning of areas of vitilago and scarring ([7]; subject's areas of vitilago and a scar): did not tan
- Effect on freckles ([7]; subject's freckles): got darker
- Effect on ATP levels in skeletal muscle [8]: raises ATP levels in skeletal muscle
